One test has as its target Histone deacetylase. Nature of the test: Inhibition of HDAC in human HeLa cell nuclear extracts using Color de LysTM after 30 mins. The test is classed as protein assay.
In a further test the test system is HeLa. Nature of the test: cells. Conditions: Homo sapiens, 48 h. The test is classed as functional, cell-based.
The test system of the next test is MDA-MB-231. Nature of the test: cells. The class given is functional, cell-based. Conditions: Homo sapiens, MDA-MB-231, 48 h.
For the next test, the system named is MCF7. Briefly: cells. Conditions: Homo sapiens, MCF7, 48 h. The class given is functional, cell-based.

A value given as a limit tells only on which side of the number the result lay.

Description for HeLa: Growth inhibition of human HeLa cells after 48 hrs by MTT assay
Description for MCF7: Growth inhibition of human MCF7 cells after 48 hrs by MTT assay
Description for MDA-MB-231: Growth inhibition of human MDA-MB-231 cells after 48 hrs by MTT assay

Take `COc1cc(/C=C/C(=O)Nc2ccccc2N)ccc1OCC(=O)Nc1ccccc1F`: the IC50 against Histone deacetylase stood at 73.7 µM. The same measure, in the same setting: the value for `COc1cc(/C=C/C(=O)Nc2ccccc2N)ccc1OCC(=O)Nc1ccc(F)c(Cl)c1` was 11.5 µM. On to `COc1cc(/C=C/C(=O)NO)ccc1OCC(=O)Nc1cccc(F)c1`, for which the IC50 in the test on HeLa is 34.5 µM; with MDA-MB-231, 1.45 µM; against Histone deacetylase it was 9.47 µM; in the test on MCF7, 39.5 µM. On to `COc1cc(/C=C/C(=O)Nc2ccc(C)cc2N)ccc1OCC(=O)Nc1cc(C(F)(F)F)cc(C(F)(F)F)c1`, for which the IC50 against Histone deacetylase stood at 71.4 µM.

Take `COc1cc(/C=C/C(=O)Nc2ccccc2N)ccc1OCC(=O)Nc1cccc(F)c1`: the IC50 in the test on HeLa was 28.1 µM; in the test with MDA-MB-231 it was greater than 100 µM; on Histone deacetylase it was 2.82 µM; in the test on MCF7, greater than 100 µM. In the case of `COc1ccc(NC(=O)COc2ccc(/C=C/C(=O)Nc3ccc(C)cc3N)cc2OC)cc1`, at Histone deacetylase, the IC50 was 118 µM. Same read-out and setting: to `COc1cc(/C=C/C(=O)Nc2ccc(C)cc2N)ccc1OCC(=O)Nc1cccc(F)c1` belongs 66.6 µM. On the same count and under the same terms, the value for `COc1cc(/C=C/C(=O)NO)ccc1OCC(=O)Nc1cc(Br)cc(C(F)(F)F)c1` was 67.8 µM; that for `COc1cc(/C=C/C(=O)Nc2ccc(C)cc2N)ccc1OCC(=O)Nc1ccc(F)c(Cl)c1` was 15.4 µM. Same read-out and setting: to `COc1cc(/C=C/C(=O)Nc2ccccc2N)ccc1OCC(=O)Nc1cc(Br)cc(C(F)(F)F)c1` belongs 24.2 µM. In the case of `COc1cc(/C=C/C(=O)NO)ccc1OCC(=O)Nc1ccccc1F`, the IC50 is 11.1 µM in the test on HeLa, 8.3 µM in the test with MDA-MB-231, 3.94 µM at Histone deacetylase and greater than 100 µM in the test on MCF7. The matching figures for `COc1cc(/C=C/C(=O)Nc2ccccc2N)ccc1OCC(=O)Nc1ccc(Cl)c(Cl)c1`: 72.1 µM, 83.4 µM, 10.3 µM and greater than 100 µM. The matching figures for `COc1cc(/C=C/C(=O)Nc2ccc(C)cc2N)ccc1OCC(=O)Nc1cc(Br)cc(C(F)(F)F)c1`: 84.3 µM, greater than 100 µM, 7.43 µM and 92.1 µM. At Histone deacetylase, `COc1cc(/C=C/C(=O)NO)ccc1OCC(=O)Nc1ccc(Cl)c(Cl)c1` returned an IC50 of 43 µM. As to `COc1ccc(NC(=O)COc2ccc(/C=C/C(=O)Nc3ccccc3N)cc2OC)cc1`, the IC50 with HeLa was greater than 100 µM; in the test on MDA-MB-231, 48.5 µM; on Histone deacetylase, 8.95 µM; with MCF7, greater than 100 µM. In turn, `COc1cc(/C=C/C(=O)Nc2ccc(C)cc2N)ccc1OCC(=O)Nc1ccc(Br)cc1` returned an IC50 on Histone deacetylase of 16.4 µM. Still for that read-out and setting: to `COc1cc(/C=C/C(=O)Nc2ccc(C)cc2N)ccc1OCC(=O)Nc1ccc(Cl)c(Cl)c1` belongs 64.5 µM.

As to `COc1cc(/C=C/C(=O)Nc2ccccc2N)ccc1OCC(=O)Nc1cc(C(F)(F)F)cc(C(F)(F)F)c1`, the IC50 is 20.8 µM in the test with HeLa, 25.3 µM in the test on MDA-MB-231, 7.8 µM at Histone deacetylase and 43.1 µM with MCF7. As for `COc1cc(/C=C/C(=O)Nc2ccc(C)cc2N)ccc1OCC(=O)Nc1cccc(C(F)(F)F)c1`, the IC50 at Histone deacetylase was 15.1 µM. On the same count and under the same terms, to `COc1ccc(NC(=O)COc2ccc(/C=C/C(=O)NO)cc2OC)cc1` belongs 10.8 µM. Still for that read-out and setting: to `COc1cc(/C=C/C(=O)Nc2ccc(C)cc2N)ccc1OCC(=O)Nc1ccccc1F` belongs 11.6 µM; to `COc1cc(/C=C/C(=O)NO)ccc1OCC(=O)Nc1cccc(C(F)(F)F)c1`, 12.5 µM.

On to `COc1cc(/C=C/C(=O)NO)ccc1OCC(=O)Nc1cc(C(F)(F)F)cc(C(F)(F)F)c1`, for which the IC50 at Histone deacetylase was found to be 10.5 µM. The same measure, in the same setting: the value for `COc1cc(/C=C/C(=O)Nc2ccccc2N)ccc1OCC(=O)Nc1ccc(Br)cc1` was 12.8 µM. Still for that read-out and setting: to `COc1cc(/C=C/C(=O)Nc2ccccc2N)ccc1OCC(=O)Nc1cccc(C(F)(F)F)c1` belongs 49.6 µM.

For the molecule `COc1cc(/C=C/C(=O)NO)ccc1OCC(=O)Nc1ccc(F)c(Cl)c1`, on Histone deacetylase, the IC50 is 49.3 µM. For `COc1cc(/C=C/C(=O)NO)ccc1OCC(=O)Nc1ccc(Br)cc1`, the IC50 was greater than 100 µM in the test with HeLa, 0.76 µM with MDA-MB-231, 8.43 µM against Histone deacetylase and 73.6 µM with MCF7.

For the origin of these results see ChEMBL document CHEMBL2439966, “Development of novel ferulic acid derivatives as potent histone deacetylase inhibitors” (Bioorg Med Chem, 2013).
